Data taken from patent US10047102B2, “Pyridyl-triazabicycles” (Hoffmann-La Roche Inc., priority 2014, dated 2018).

Biological target: T1, BACE1 (Homo sapiens, UniProt P56817)
T1 construct: endogenous in cells; host or cells: HEK293 APP cells
Test: Cellular Aβ-lowering assay (Abeta 40 AlphaLISA, HEK293 APP cells)
Format: cell-based
Details: Aβ 40 in culture supernatant by AlphaLISA, 18-20 hrs incubation at 37° C., 1% DMSO
Description: The compounds were investigated in accordance with the test given hereinafter.
The Abeta 40 AlphaLISA Assay can be used. The HEK293 APP cells were seeded in 96 well Microtiter plates in cell culture medium (Iscove's, plus 10% (v/v) fetal bovine serum, penicillin/streptomycin) to about 80% confluency and the compounds were added at a 3× concentration in ⅓ volume of culture medium (final DMSO concentration was kept at 1% v/v). After 18-20 hrs incubation at 37° C. and 5% CO2 in a humidified incubator, the culture supernatants were harvested for the determination of Aβ 40 concentrations using Perkin-Elmer Human Amyloid beta 1-40 (high specificity) Kit (Cat# AL275C).
In a Perkin-Elmer White Optiplate-384 (Cat# 6007290), 2 ul culture supernatants were combined with 2 μl of a 10× AlphaLISA Anti-hAβAcceptor beads+Biotinylated Antibody Anti-Aβ 1-40 Mix (50 μg/mL/5 nM). After 1 hour room temperature incubation, 16 μl of a 1.25× preparation of Streptavidin (SA) Donor beads (25 μg/mL) were added and incubated for 30 minutes in the Dark. Light Emission at 615 nm was then recorded using EnVision-Alpha Reader. Levels of Aβ 40 in the culture supernatants were calculated as percentage of maximum signal (cells treated with 1% DMSO without inhibitor). The IC50 values were calculated using the Excel XLfit software.

T1 sequence (P56817 46-501): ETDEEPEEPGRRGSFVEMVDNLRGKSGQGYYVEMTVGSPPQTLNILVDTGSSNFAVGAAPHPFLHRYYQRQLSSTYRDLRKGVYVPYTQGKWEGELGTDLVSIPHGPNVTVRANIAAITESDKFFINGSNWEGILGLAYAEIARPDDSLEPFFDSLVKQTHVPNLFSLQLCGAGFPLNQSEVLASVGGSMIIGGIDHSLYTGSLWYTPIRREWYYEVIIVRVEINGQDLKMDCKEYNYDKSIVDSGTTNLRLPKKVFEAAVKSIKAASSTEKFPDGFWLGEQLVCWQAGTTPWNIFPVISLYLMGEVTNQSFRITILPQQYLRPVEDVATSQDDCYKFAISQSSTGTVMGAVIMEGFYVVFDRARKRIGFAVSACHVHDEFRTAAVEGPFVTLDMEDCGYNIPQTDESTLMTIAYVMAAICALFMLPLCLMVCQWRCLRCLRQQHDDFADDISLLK

Structure (SMILES)	IC50 [nM]
N#Cc1ccc(C(=O)Nc2ccc(F)c([C@]3(C(F)F)C[S@]4(=O)=NCCCCN4C(N)=N3)n2)nc1 [Example 6, N-[6-[(1S,10S)-8-Amino-10-(difluoromethyl)-1-oxo-1λ^6-thia-2,7,9-triazabicyclo[5.4.0]undeca-1,8-dien-10-yl]-5-fluoropyridin-2-yl]-5-cyanopyridine-2-carboxamide]	78
N#Cc1ccc(C(=O)Nc2ccc(F)c([C@]3(C(F)F)C[S@@]4(=O)=NCCCCN4C(N)=N3)n2)nc1 [Example 7, N-[6-[(1R,10S)-8-Amino-10-(difluoromethyl)-1-oxo-1λ^6-thia-2,7,9-triazabicyclo[5.4.0]undeca-1,8-dien-10-yl]-5-fluoropyridin-2-yl]-5-cyanopyridine-2-carboxamide]	147
